Measurements taken from US5719153A, “5H,8H-2-oxa-1,3,5,8-tetraaza-cyclopenta[b]-naphthalene-6,7-diones” (American Home Products Corporation, priority 1996, dated 1998).

Target: AMPA receptor
Assay: displacement of [^3 H]-AMPA from its binding site on rat forebrain membranes
Details: 5 nmolar [^3 H]AMPA, 100 mmolar KSCN, 4° C., 1 hr
Experimental: A representative compound of this invention was evaluated in a standard pharmacological test procedure to determine its ability to displace [^3 H]-α-amino-3-hydroxy-5-methylisoxazole-4-propionic acid (AMPA) from its binding site on rat forebrain membranes as described in a modified assay by D. E. Murphy, E. W. Snowhill and M. Williams (Characterization of quisqualate recognition sites in rat brain tissue using DL-[^3 H]α-amino-3-hydroxy-5-methylisoxazole-4-propionic acid (AMPA) and a filtration assay, Neurochemical Research, Vol. 12, No.9, 1987, pp. 775-782). Briefly, rats were decapitated and their forebrains (whole brain minus brain stem and cerebella) were homogenized in a volume (ml) of ice cold 0.32M sucrose equivalent to 15 times the forebrain weight (gram). The homogenate was centrifuged at 1,000 g for 10 minutes and the supernatant was recentrifuged at 20,000 g for 20 min. The pellet was resuspended in ice-cold distilled water and centrifuged at 8,000 g for 20 min. The supernatant and buffy coat were centrifuged at 48,000 g for 10 min. The pellet was then resuspended in the original volume of ice-cold 50 mmolar TRIS HCl (pH 7.4) and centrifuged at 48,000 g for 10 min. The pellet was resuspended in 50 mmolar TRIS HCl containing 0.04% Triton X-100 and the homogenate was incubated at 37° C. for 30 min. The homogenate was then centrifuged at 48,000 g for 10 min. […]

O=c1[nH]c2cc3no[n+]([O-])c3cc2[nH]c1=O [Example 1, 1-Oxy-5H,8H-2-oxa-1,3,5,8-tetraaza-cyclopenta[b]naphthalene-6,7-dione]
IC50: 7.6 µM
